Test results published in US20250320190A1, “Novel Inhibitors of Leucine Carboxyl Methyltransferase-1 (LCMT-1) and Methods of Use Thereof” (Temple University-Of The Commonwealth System of Higher …, priority 2024, published 2025).
≈ marks a conversion by molar mass, not a printed value. Each block holds one compound with its values, some of them ahead of it.

Key:
[1] = molecular target: T1, rhLCMT-1 (Homo sapiens, UniProt Q9UIC8); experiment: rhLCMT-1 activity assay (dot immunoblot); format: biochemical; conditions: each inhibitor 50 μM; 20 μM SAM; 37° C. for 30 minutes
T1 construct: purchased SignalChem (Richmond, British Columbia, Canada)
Method: Recombinant human LCMT-1 (rhLCMT-1) and rhPP2Ac were obtained from SignalChem (Richmond, British Columbia, Canada). Methyltransferase assays were performed with 100 ng rhLCMT-1 and 91.62 ng rhPP2Ac (2:1 molar ratio) (28) in reaction buffer containing 20 mM Tris (pH 8.0), 50 mM NaCl, 1 mM EDTA. rhLCMT-1 was incubated with Compound 1 (Chemspace, San Jose, California), Compound 2 (Akos Consulting and Solutions, Amtsgericht, Freiburg, Germany) or sinefungin, a SAM analogue, (Active Motif, Carlsbad, California), each at 50 μM final concentration, for 10 minutes at room temperature. rhPP2Ac was added to the reactions with 20 μM (final concentration) SAM (New England Biolabs, Ipswich, Massachusetts, FIG. 9). […] Reactions were incubated at 37° C. for 30 minutes (FIG. 10). Because the inhibitors gave false positive results with the secondary reactions used in colorimetric and bioluminescent methyltansferase assays, LCMT-1 activity was assessed using dot immunoblots. Reactions were applied to nitrocellulose membranes (Cytiva, Marlborough, Massachusetts). […] Membranes were treated with infrared (IR)-dye anti-mouse antibody (Li-Cor, Lincoln, Nebraska, catalog #926-32210, 1:20,000 dilution) and densities were measured with Li-Cor Image Studio (version 5.2) software. rhLCMT-1 inhibition assays were performed three times, each time with five replicates for each condition.

[2] = Plasma protein binding; format: in vitro ADME; conditions: read-out: Plasma Protein Binding (bound fraction) (converted)
Source text: (§1) There is no cause for concern at this stage since there are multiple strategies and reagents for enhancing aqueous solubility for animal in vivo studies (Savjani, K. T., A. K. Gajjar and J. K. Savjani, 2012, ISRN Pharm 2012: 195727.). […] While target tissue exposure is dependent on free, unbound fractions in the plasma, plasma protein binding can protect compounds from hepatic metabolism. Thus, in vivo metabolism and excretion are often determined by a balance between these two properties. In vivo half-life is a complicated property impacted upon by multiple factors and is difficult to predict. […] While these numbers are somewhat low for a drug candidate, they are acceptable for proof of concept tool molecules which can be given multiple times per day and at higher doses to saturate metabolism.

[3] = system: MCF7 cells; experiment: Western blots; format: cell-based, human; conditions: 20 μM, lysates after 2, 4, 6, 8 and 12 hours
Method: (§2) MCF7, MDA-MB-231 and Rosi cells were treated with Compound 1 or Compound 2 at a concentration of 20 μM in complete medium, and lysates were harvested after 2, 4, 6, 8 and 12 hours in radioimmunoprecipitation assay buffer containing protease inhibitors (Boster Bio, Pleasanton, California, catalog #AR1182-1) and phosphatase inhibitors (Santa Cruz Biotechnology catalog #sc-45044 and #sc-45045). Protein concentrations were measured with a bicinchoninic acid assay (G-Biosciences, Saint Louis, Missouri). Fifty micrograms of each lysate were used for bis-tris polyacrylamide gel electrophoresis. Resolved lysates were transferred to nitrocellulose membranes. Membranes were blocked with TBS with 5% bovine serum albumin before incubation with primary antibodies.
(§3) Antibodies obtained from Cell Signaling Technology (Danvers Massachusetts) were, anti-PP2Ac (catalog #2038, 1:1,000 dilution), anti-phospho-adenosine monophosphate-activated protein kinase (pAMPKα2 threonine 172, catalog #2535, 1:1,000 dilution). Antibodies obtained from Proteintech (Rosemont, Illinois) include anti-phospho-receptor-interacting serine/threonine protein kinase-1 antibodies (pRIPK1 serine 161 (catalog #66854-1-Ig, 1:1,000 dilution) and pRIPK1 serine 166 (catalog #28252-1-AP, 1:10,000 dilution), anti-mixed lineage kinase domain like pseudokinase (MLKL, catalog #66675-1-Ig, 1:5,000 dilution), anti-AMPKα2, anti-phospho-acetyl-coenzyme A carboxylase (pACC1 serine 79, catalog #29119-1-AP, 1:1,000 dilution), anti-ACC1 (catalog #21923-1-AP, 1:2,000 dilution) and anti-β-actin (catalog #66009-1-Ig, 1:50,000 dilution). The anti-RIPKI antibody was obtained from AbClonal (Woburn, Massachusetts, catalog #A7414, 1:750 dilution). The anti-phospho-MLKL antibody was obtained from R&D Systems (Minneapolis, Minnesota, 1:1,000 dilution). The LCMT-1 antibody was obtained from Origene (Rockville, Maryland, catalog #TA503127S, 1:2,000 dilution). Appropriate IR-dye secondary antibodies were used (Alexa Fluor® 790-conjugated anti-mouse (catalog #115-655-146, 1:50,000 dilution), Alexa Fluor® 680-conjugated anti-mouse (catalog #115-625-146, 1:50,000 dilution), and Alexa Fluor® 680-conjugated anti-rabbit (catalog #115-625-144, 1:50,000 dilution) were obtained from Jackson ImmunoResearch Laboratories (West Grove, Pennsylvania). Band densities were normalized to β-actin, the endogenous control. At least five replicates were used for statistical analyses.

[4] = system: MDA-MB-231 cells; experiment: Western blots; format: cell-based, human; conditions: 20 μM, Compound 2 significant at 4 hours
Method: as §2, §3

[5] = system: Rosi cells; experiment: Western blots; format: cell-based, human; conditions: 20 μM, Compound 2 significant at 6 hours
Method: as §2, §3

[6] = Liver microsomal stability; format: in vitro ADME
Source text: as §1

[7] = Plasma stability; format: in vitro ADME; conditions: mouse plasma; read-out: Plasma Stability (t1/2)
Source text: as §1

[8] = Kinetic solubility; format: physicochemical; conditions: 2% dimethylsulfoxide/PBS, aqueous buffer, kinetic from dmso stock; read-out: Max. Kinetic Solubility
Source text: as §1

[9] = system: Rosi cells; experiment: Cytotoxicity assay (calcein-AM); format: cell-based, human
Method: HS-5, HEK-293, MCF7, MDA-MB-231 and Rosi cells were seeded in 96-well optical bottom tissue culture plates (Corning, New York) at a density of 2.5×10^3 cells/well. […] Control cells were given fresh media. After 48 hours the media were aspirated and plates were washed with warmed Dulbecco's phosphate-buffered saline (DPBS) with calcium and magnesium (Sigma-Aldrich, catalog #D1283). Cells were stained with 3 μM calcein-AM (AAT Bioquest, Pleasanton, California, catalog #22002) in DPBS for 30 minutes in the dark at 37° C. Plates were immediately read with a Biotek fluorescent plate reader (excitation 485 nm, emission 520 nm). The cytotoxicity assays were performed at least three times, each time with six replicates per condition.

[10] = system: MCF7 cells; experiment: Cytotoxicity assay (calcein-AM); format: cell-based, human
Method: (§4) HS-5, HEK-293, MCF7, MDA-MB-231 and Rosi cells were seeded in 96-well optical bottom tissue culture plates (Corning, New York) at a density of 2.5×10^3 cells/well. After 24 hours, the media were changed to media containing LB-100 (Cayman Chemical Company, Ann Arbor, Michigan) or Compound 2 at various concentrations (50-0.31 μM). Control cells were given fresh media. After 48 hours the media were aspirated and plates were washed with warmed Dulbecco's phosphate-buffered saline (DPBS) with calcium and magnesium (Sigma-Aldrich, catalog #D1283). Cells were stained with 3 μM calcein-AM (AAT Bioquest, Pleasanton, California, catalog #22002) in DPBS for 30 minutes in the dark at 37° C. Plates were immediately read with a Biotek fluorescent plate reader (excitation 485 nm, emission 520 nm). The cytotoxicity assays were performed at least three times, each time with six replicates per condition.

[11] = system: MDA-MB-231 cells; experiment: Cytotoxicity assay (calcein-AM); format: cell-based, human; conditions: Homo sapiens, MDA-MB-231, 48 h, read-out: Log [μM] EC50 (converted)
Method: as §4

[12] = system: MDA-MB-231 cells; experiment: Annexin V assay; format: cell-based, human; conditions: 5-20 μM, 48 hours
Method: (§5) MCF7, MDA-MB-231 and Rosi cells were treated with LB-100 and Compound 2 at 5-20 μM concentrations. After 48 hours, cells were lifted with Accutase and washed twice with PBS (pH 7.4) with 10% FBS. Cells were resuspended in annexin V binding buffer (10 mM HEPES (pH 7.4), 140 mM NaCl and 2.5 mM CaCl2)) and labeled with FITC-anti-Annexin V and 7-AAD (Biolegend, FITC Annexin V Apoptosis Detection Kit with 7-AAD, catalog #640922). Cell surface annexin V expression was assessed with flow cytometry.

[13] = system: Rosi cells; experiment: Annexin V assay; format: cell-based, human; conditions: 5-20 μM, 48 hours
Method: as §5

[14] = system: HEK-293 cells; experiment: Cytotoxicity assay (calcein-AM); format: cell-based
Method: as §4

[15] = system: HS-5 cells; experiment: Cytotoxicity assay (calcein-AM); format: cell-based
Method: as §4

[16] = system: MCF7 cells; experiment: Cell cycle analysis (BrdU flow cytometry); format: cell-based, human; conditions: 20 μM, 24 hours
Method: (§6) MCF7, MDA-MB-231 and Rosi cells were seeded in 6-well tissue culture plates (Celltreat) at a density of 5×10^5 cells per well. After 24 hours, the DMEM was changed to media containing 20 μM LB-100 or Compound 2. Control cells were given fresh media. After 24 hours, cells were labeled with 50 μM bromodeoxyuridine (BrdU, BioGems, Westlake Village, California, catalog #5911439). Cells were lifted with 0.25% trypsin, 2.21 mM ethylenediaminetetraacetic acid (Corning catalog #25-053-CI) after 4 hours and fixed with 70% ethanol overnight at 4° C. Cells were pelleted and cellular DNA was denatured with HCl. After neutralization with 1 M Tris, pH 8.5, cells were labeled with FITC-anti-BrdU (Biolegend, San Diego, California, catalog #364104, 5 μL/100 μL cell suspension) and 7-aminoactinomycin-D (7-AAD, Biolegend, catalog #420404, 1 μL/100 μL cell suspension). Cells were analyzed with a Becton-Dickinson FACSymphony™ flow cytometer. Cell cycle analyses were performed three times.

[17] = system: MDA-MB-231 cells; experiment: Cell cycle analysis (BrdU flow cytometry); format: cell-based, human; conditions: 20 μM, 24 hours
Method: as §6

[18] = system: Rosi cells; experiment: Cell cycle analysis (BrdU flow cytometry); format: cell-based, human; conditions: 20 μM, 24 hours
Method: as §6

[19] = system: MCF7 cells; experiment: Colony forming assay; format: cell-based, human; conditions: 50-3.25 μM, one week
Method: (§7) MCF7, MDA-MB-231 and Rosi cells were seeded in 96-well tissue culture plates (Celltreat, Pepperell, Massachusetts) at a density of 90 cells per well (Mayr et al. Int J Mol Sci. 2018; 19(3)). After 24 hours, the media were changed to media containing LB-100 or Compound 2 at various concentrations (50-3.25 μM). Control cells were given fresh media. After one week the media were aspirated and the wells were washed with PBS. Cells were stained with crystal violet solution (0.25 g crystal violet in 20% methanol) for 10 minutes. The wells were washed 6 times with PBS to remove excess crystal violet. Colonies were counted with an ECHO Revolve hybrid microscope at 1.5× magnification. There were ten replicates for each condition.

[20] = system: MDA-MB-231 cells; experiment: Colony forming assay; format: cell-based, human; conditions: 50-3.25 μM, one week
Method: as §7

[21] = system: Rosi cells; experiment: Colony forming assay; format: cell-based, human; conditions: 50-3.25 μM, one week
Method: as §7

T1 sequence (Q9UIC8 whole entry): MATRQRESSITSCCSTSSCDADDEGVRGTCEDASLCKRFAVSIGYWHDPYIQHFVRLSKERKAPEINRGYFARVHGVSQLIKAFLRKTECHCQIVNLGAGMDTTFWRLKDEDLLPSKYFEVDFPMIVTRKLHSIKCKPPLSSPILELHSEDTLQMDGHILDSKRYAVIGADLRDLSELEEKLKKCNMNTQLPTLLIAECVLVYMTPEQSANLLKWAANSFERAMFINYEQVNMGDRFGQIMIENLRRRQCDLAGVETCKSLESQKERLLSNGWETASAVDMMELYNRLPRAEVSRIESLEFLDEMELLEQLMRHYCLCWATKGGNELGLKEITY

fraction unbound [2]: 0.033 | half-life ([6]; human liver microsomes, read-out: Liver Microsomal Stability (t1/2) Human): 45.7 min | half-life ([6]; mouse liver microsomes, read-out: Liver Microsomal Stability (t1/2) Mouse): 20 min | half-life [7]: > 180 min | solubility kinetic [8]: 27.1 µM (≈ 7.95 µg/mL)
SMILES: O=C(COc1cccc2ccccc12)Nc1ccccc1O [Compound 1, N-(2-Hydroxyphenyl)-2-(1-naphthalenyloxy)acetamide]
methylation of rhPP2Ac by rhLCMT-1 [1]: did not significantly inhibit PP2Ac methylation | PP2Ac methylation [3]: did not increase PP2Ac methylation | PP2Ac methylation [4]: did not increase PP2Ac methylation | PP2Ac methylation [5]: did not increase PP2Ac methylation

SMILES: CN1CCN(C(=O)C2C(C(=O)O)[C@H]3CC[C@@H]2O3)CC1 (some centres unmarked) [LB-100, reference compound]
EC50 ([9]; Homo sapiens, 48 h, read-out: Log [μM] EC50 (converted)): 21900 µM | concentration at which survival was significantly inhibited ([9]; Rosi, 48 hours): 20 µM | EC50 ([10]; Homo sapiens, MCF7, 48 h, read-out: Log [μM] EC50 (converted)): 45.7 µM | inhibition of survival ([10]; MCF7, concentrations tested 50-0.31 μM, 48 hours): Neither LB-100 nor Compound 2 significantly inhibited survival | EC50 [11]: 6.76 µM | apoptosis (cell surface annexin V expression) [12]: induced apoptosis | apoptosis (cell surface annexin V expression) [13]: induced apoptosis | concentration at which survival was significantly inhibited ([14]; HEK-293, 48 hours): 20 µM | EC50 ([14]; Homo sapiens, HEK293, 48 h, read-out: Log [μM] EC50 (converted)): 21.4 µM | EC50 ([15]; HS5, 48 h, read-out: Log [μM] EC50 (converted)): 36.3 µM | concentration at which cytotoxicity was significant ([15]; human, 48 h): 20 µM | cell cycle effect [16]: induced G0/G1 arrest | cell cycle effect [17]: induced G2/M-phase arrest | cell cycle effect [18]: induced G2/M-phase arrest | clonogenic colony formation [19]: inhibited to a lesser extent | clonogenic colony formation [20]: inhibited colony formation | clonogenic colony formation [21]: inhibited colony formation
